Results on one compound are retold here after US20090246212A1, “DEVELOPMENT OF METHOD FOR SCREENING FOR DRUG CAPABLE OF IMPROVING PRODUCTION OF REGULATORY T CELLS AND METHOD FOR PRODUCING REGULATORY T CELLS USING IMMUNOSUPPRESSIVE MACROLIDE ANTIBIOTIC” (KYOTO UNIVERSITY, priority 2005, published 2009).

Holding throughout (assay type): cell-based, human
In assay [1] the test system is CD45RA^+CD25^+CD4^+ T cell line. Kind of assay: Suppression assay ([^3H] thymidine uptake) of the everolimus-cultured CD45RA^+CD25^+CD4^+ T cell line. The following applies: cultivation in the presence of everolimus, 50 days; compared with controls. The method, then: (§1) CD45RA^+CD25^+CD4^+ T cells or CD45RA^+CD25^−CD4^+ T cells in human peripheral blood (5×10̂4 cells/well) were stimulated with 1×10̂5 cells/well radiated (40 Gy) allogenic PBMCs in a 96-well round-bottomed culture plate containing 200 μl per well of a proliferation medium (AlyS505N (produced by Cell Science & Technology Institute) supplemented with 2% human AB serum) in the presence of human IL-2 (1000 U/ml, produced by Cell Science & Technology Institute).
(§2) Everolimus (100 nM or 1000 nM, produced by Novartis Pharma) was added to the medium from the start of cultivation. The everolimus was purified as follows: Certican 0.25 mg tablet (produced by Novartis Pharma) was milled and dissolved in acetone. Then, the solution was filtered, the filtrate was evaporated while rotating, and the precipitate was vacuum-dried. […]
(§3) The indicated number of cells of the expanded CD45RA^+CD25^+CD4^+ T cell line or expanded CD45RA^+CD25^−CD4^+ T cell line, alone or along with autologous responder CD4^+ T cells (5×10̂4 cells/well), were stimulated with radiated (40 Gy) PBMCs (1×10̂5 cells/well) obtained from the same individual as the allogenic PBMCs used for the cultivation, in a proliferation medium in a round-bottomed 96-well microplate. […] Subsequently, the cells were recovered, and [^3H] thymidine uptake was measured using 1450 Microbeta TriLux (Wallac).

The test system of assay [2] is CD45RA^+CD25^−CD4^+ T cells. Kind of assay: Expansion culture of CD45RA^+CD25^−CD4^+ T cells with allogenic PBMCs and IL-2, everolimus added. The following applies: everolimus 100 nM or 1000 nM from the start of cultivation. The method, then: as §1
(§4) Everolimus (100 nM or 1000 nM, produced by Novartis Pharma) was added to the medium from the start of cultivation. The everolimus was purified as follows: Certican 0.25 mg tablet (produced by Novartis Pharma) was milled and dissolved in acetone. Then, the solution was filtered, the filtrate was evaporated while rotating, and the precipitate was vacuum-dried. The extract obtained was dissolved in DMF and separated by HPLC (column C18 4 μm, 150×2.1 mm). After separation, the everolimus was freeze-dried and purified.
(§5) Every 3 to 4 days, half of the medium was replaced with a fresh proliferation medium containing IL-2. If necessary, the cells were separated and repeatedly re-stimulated with radiated (40 Gy) allogenic PBMC every 10 to 14 days. Fifty days after the start of cultivation, the cells were collected and used for functional assay.

The subject of assay [3] is CD45RA^+CD25^+CD4^+ T cells. Kind of assay: Expansion culture of CD45RA^+CD25^+CD4^+ T cells with allogenic PBMCs and IL-2, everolimus added. Particulars: everolimus 1000 nM from the start of cultivation. The method, then:
as §1, §4, §5

For assay [4], the system named is CD45RA^+CD25^−CD4^+ T cell line. Kind of assay: Suppression assay ([^3H] thymidine uptake) of the everolimus-cultured CD45RA^+CD25^−CD4^+ T cell line. The following applies: cultivation in the presence of everolimus, 50 days; compared with the control. The method, then: as §1, §2, §3

Regarding `CO[C@H]1C[C@@H]2CC[C@@H](C)[C@@](O)(O2)C(=O)C(=O)N2CCCC[C@H]2C(=O)O[C@H]([C@H](C)C[C@@H]2CC[C@@H](OCCO)[C@H](OC)C2)CC(=O)[C@H](C)/C=C(\C)[C@@H](O)[C@@H](OC)C(=O)[C@H](C)C[C@H](C)/C=C/C=C/C=C/1C` [everolimus, 42-O-(2-hydroxy)ethyl-rapamycin], the “T cell line's effect on proliferation of CD4^+ T cells in response to alloantigen-presenting cells” value in assay [1] and in assay [4] was “more strongly suppressed” each time. Further, the “proliferation of CD45RA^+CD25^−CD4^+ T cells” value in assay [2] is “enhanced”. Also, the “proliferation of CD45RA^+CD25^+CD4^+ T cells” value in assay [3] was “suppressed”.
